The record followed here is patent publication US10844032B2, “Substituted benzofuran, benzothiophene and indole Mcl-1 inhibitors” (Vanderbilt University, priority 2012, dated 2020).

Molecules are shown by their SMILES. Read-outs that look alike come from different tables or passages of the source.

The target in the experiment is recombinant Mcl-1 (residues 172-327) (Homo sapiens (Human), UniProt Q07820). As to the kind of experiment: Bak peptide fluorescence polarization anisotropy competition assay, Mcl-1. Format: binding. (In general: Polarisation of emitted light reports the rotation of a fluorescent probe.)
Sequence of recombinant Mcl-1 (residues 172-327) (Q07820 172-327): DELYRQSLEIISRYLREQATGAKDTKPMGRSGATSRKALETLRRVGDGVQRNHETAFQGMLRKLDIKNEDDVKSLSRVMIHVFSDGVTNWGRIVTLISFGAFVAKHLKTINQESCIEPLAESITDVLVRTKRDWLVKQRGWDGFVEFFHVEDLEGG
[1] abbreviates: read-out: Ki for inhibition of Mcl-1.
[2] abbreviates: Table 2, Ki range, FITC-Bak peptide 10 nM, Mcl-1 14 nM, read-out: Ki for inhibition of Mcl-1.

The Ki is the dissociation constant of the complex between target and ligand, obtained from inhibition or displacement. For `Cc1cc(OCCCc2c(C(=O)NS(=O)(=O)c3ccnc(Cl)c3)[nH]c3ccccc23)cc(C)c1Cl` [Example 135, 3-(3-(4-chloro-3,5-dimethylphenoxy)propyl)-N-((2-chloropyridin-4-yl)sulfonyl)-1H-indole-2-carboxamide], the Ki under setting [1] lay within 301 to 500 nM.

On to `Cc1cc(OCCCc2c(C(=O)NS(=O)(=O)CCNC(=O)c3ccn[nH]3)[nH]c3ccccc23)cc(C)c1Cl` [Example 181, N-((2-(1H-pyrazole-5-carboxamido)ethyl)sulfonyl)-3-(3-(4-chloro-3,5-dimethylphenoxy)propyl)-1H-indole-2-carboxamide], for which, under setting [1], the Ki fell in the range of 1000 to 9990 nM.

Turning to `Cc1ccc2c(CCCOc3cccc4ccccc34)c(C(=O)O)sc2c1` [Example 9, 6-methyl-3-(3-(naphthalen-1-yloxy)propyl)benzo[b]thiophene-2-carboxylic acid], the Ki under setting [1] fell in the range of 501 to 999 nM.

Consider `CS(=O)(=O)NC(=O)c1[nH]c2cc(Cl)ccc2c1CCCOc1ccc(Cl)c2ccccc12` [Example 76, 6-chloro-3-(3-((4-chloronaphthalen-1-yl)oxy)propyl)-N-(methylsulfonyl)-1H-indole-2-carboxamide], for which the Ki under setting [1] fell in the range of 301 to 500 nM.

As to `Cc1cc(OCCCc2c(C(=O)NS(=O)(=O)CCNC(=O)c3cc(C)n(Cc4ccccc4)c3C)[nH]c3ccccc23)cc(C)c1Cl` [Example 194, N-((2-(1-benzyl-2,5-dimethyl-1H-pyrrole-3-carboxamido)ethyl)sulfonyl)-3-(3-(4-chloro-3,5-dimethylphenoxy)propyl)-1H-indole-2-carboxamide], the Ki under setting [1] lay in the range of 101 to 299 nM.

As for `Cc1cc(OCCCc2c(C(=O)NS(=O)(=O)c3cccnc3)[nH]c3ccccc23)cc(C)c1Cl` [Example 133, 3-(3-(4-chloro-3,5-dimethylphenoxy)propyl)-N-(pyridin-3-ylsulfonyl)-1H-indole-2-carboxamide], under setting [1], the Ki was 301 to 500 nM.

For `Cc1cc(OCCCc2c(C(=O)NS(C)(=O)=O)sc3cccc(Cl)c23)cc(C)c1Cl` [Example 71, 4-chloro-3-(3-(4-chloro-3,5-dimethylphenoxy)propyl)-N-(methylsulfonyl)benzo[b]thiophene-2-carboxamide], under setting [1], the Ki is 1000 to 9990 nM.

Consider `COc1ccc(Oc2cccc(S(=O)(=O)NC(=O)c3[nH]c4ccccc4c3CCCOc3cc(C)c(Cl)c(C)c3)c2)cc1` [Example 142, 3-(3-(4-chloro-3,5-dimethylphenoxy)propyl)-N-((3-(4-methoxyphenoxy)phenyl)sulfonyl)-1H-indole-2-carboxamide], for which the Ki under setting [1] lay within 301 to 500 nM.

Turning to `Cc1cc(OCCCc2c(C(=O)NS(=O)(=O)c3ccc(OCc4ccccc4)cc3)n(Cc3cccnc3)c3cc(Cl)ccc23)cc(C)c1Cl` [Example 274, N-((4-(benzyloxy)phenyl)sulfonyl)-6-chloro-3-(3-(4-chloro-3,5-dimethylphenoxy)propyl)-1-(pyridin-3-ylmethyl)-1H-indole-2-carboxamide], the Ki under setting [1] lay in the range of 1000 to 9990 nM.

Regarding `COC(=O)c1ccc(S(=O)(=O)NC(=O)c2[nH]c3cc(Cl)ccc3c2CCCOc2cc(C)c(Cl)c(C)c2)n1C` [Example 265, methyl 5-(N-(6-chloro-3-(3-(4-chloro-3,5-dimethylphenoxy)propyl)-1H-indole-2-carbonyl)sulfamoyl)-1-methyl-1H-pyrrole-2-carboxylate], the Ki under setting [1] was in the range of 101 to 299 nM.

Consider `CCOc1ccc(Oc2ccc(S(=O)(=O)NC(=O)c3[nH]c4cc(Cl)ccc4c3CCCOc3cc(C)c(Cl)c(C)c3)cc2)cc1` [Example 223, 6-chloro-3-(3-(4-chloro-3,5-dimethylphenoxy)propyl)-N-((4-(4-ethoxyphenoxy)phenyl)sulfonyl)-1H-indole-2-carboxamide], for which, under setting [1], the Ki lay within 301 to 500 nM.

With `Cc1cc(OCCCc2c(C(=O)NS(=O)(=O)c3ccccc3)[nH]c3cc(Cl)ccc23)cc(C)c1Cl` [Example 216, 6-chloro-3-(3-(4-chloro-3,5-dimethylphenoxy)propyl)-N-(phenylsulfonyl)-1H-indole-2-carboxamide], the Ki under setting [2] is no more than 100 nM.

For the compound `Cc1cc(OCCCc2c(C(=O)NS(=O)(=O)CCNC(=O)c3cn(Cc4ccccc4)c4ccccc34)[nH]c3ccccc23)cc(C)c1Cl` [Example 201, N-((2-(1-benzyl-1H-indole-3-carboxamido)ethyl)sulfonyl)-3-(3-(4-chloro-3,5-dimethylphenoxy)propyl)-1H-indole-2-carboxamide], the Ki was 101 to 299 nM.

For `Cc1cc(OCCCc2c(C(=O)NS(=O)(=O)CCNC(=O)[C@@H]3Cc4ccccc4N3)[nH]c3cc(Cl)ccc23)cc(C)c1Cl` [Example 237, (S)-6-chloro-3-(3-(4-chloro-3,5-dimethylphenoxy)propyl)-N-((2-(indoline-2-carboxamido)ethyl)sulfonyl)-1H-indole-2-carboxamide], the Ki under setting [2] was no more than 100 nM.

On to `Cc1cc(OCCCc2c(C(=O)NS(=O)(=O)CCNC(=O)C3CCCCC3)n(Cc3cccnc3)c3cc(Cl)ccc23)cc(C)c1Cl` [Example 275, 6-chloro-3-(3-(4-chloro-3,5-dimethylphenoxy)propyl)-N-((2-(cyclohexanecarboxamido)ethyl)sulfonyl)-1-(pyridin-3-ylmethyl)-1H-indole-2-carboxamide], for which, under setting [1], the Ki was 101 to 299 nM.

Regarding `Cc1cc(OCCCc2c(C(=O)NS(=O)(=O)c3ccccc3)[nH]c3c(-c4ccsc4)cccc23)cc(C)c1Cl` [Example 96, 3-(3-(4-chloro-3,5-dimethylphenoxy)propyl)-N-(phenylsulfonyl)-7-(thiophen-3-yl)-1H-indole-2-carboxamide], under setting [1], the Ki was in the range of 101 to 299 nM.

On to `Cc1cc(OCCCc2c(C(=O)NS(=O)(=O)c3ccccc3)[nH]c3c(-c4cccn4C)cccc23)cc(C)c1Cl` [Example 101, 3-(3-(4-chloro-3,5-dimethylphenoxy)propyl)-7-(1-methyl-1H-pyrrol-2-yl)-N-(phenylsulfonyl)-1H-indole-2-carboxamide], for which the Ki under setting [2] was no more than 100 nM.

Take `Cc1ccccc1-c1ccc2c(CCCOc3cccc4ccccc34)c(C(=O)O)sc2c1` [Example 12, 3-(3-(naphthalen-1-yloxy)propyl)-6-(o-tolyl)benzo[b]thiophene-2-carboxylic acid]: the Ki under setting [1] fell in the range of 1000 to 9990 nM.

`CCCn1nccc1-c1cccc2c(CCCOc3cc(C)c(Cl)c(C)c3)c(C(=O)NS(=O)(=O)c3ccccc3)[nH]c12` [Example 303, 3-(3-(4-chloro-3,5-dimethylphenoxy)propyl)-N-(phenylsulfonyl)-7-(1-propyl-1H-pyrazol-5-yl)-1H-indole-2-carboxamide]: the Ki under setting [2] is no more than 100 nM.

Consider `Cc1cc(OCCCc2c(C(=O)NS(=O)(=O)CCNC(=O)c3cccn3C)[nH]c3ccccc23)cc(C)c1Cl` [Example 170, 3-(3-(4-chloro-3,5-dimethylphenoxy)propyl)-N-((2-(1-methyl-1H-pyrrole-2-carboxamido)ethyl)sulfonyl)-1H-indole-2-carboxamide], for which, under setting [2], the Ki is no more than 100 nM.

Regarding `Cc1ccc2c(CCCOc3cccc4ccccc34)c(C(=O)NS(C)(=O)=O)[nH]c2c1` [Example 118, 6-Methyl-N-(methylsulfonyl)-3-(3-(naphthalen-1-yloxy)propyl)-1H-indole-2-carboxamide], the Ki under setting [1] was 1000 to 9990 nM.

Take `Cc1cc(OCCCc2c(C(=O)NS(=O)(=O)c3ccc(C(=O)NC4CCOCC4)o3)[nH]c3cc(Cl)ccc23)cc(C)c1Cl` [Example 263, 6-chloro-3-(3-(4-chloro-3,5-dimethylphenoxy)propyl)-N-((5-((tetrahydro-2H-pyran-4-yl)carbamoyl)furan-2-yl)sulfonyl)-1H-indole-2-carboxamide]: under setting [1], the Ki was 101 to 299 nM.

With `Cc1cc(OCCCc2c(C(=O)NS(=O)(=O)CCNC(=O)[C@@H]3Cc4ccccc4N3C)[nH]c3cc(Cl)ccc23)cc(C)c1Cl` [Example 238, (S)-6-chloro-3-(3-(4-chloro-3,5-dimethylphenoxy)propyl)-N-((2-(1-methylindoline-2-carboxamido)ethyl)sulfonyl)-1H-indole-2-carboxamide], the Ki under setting [1] lay within 101 to 299 nM.

Consider `Cc1cc(OCCCc2c(C(=O)NS(=O)(=O)c3ccc(Oc4ccccc4)cc3)[nH]c3ccccc23)cc(C)c1Cl` [Example 132, 3-(3-(4-chloro-3,5-dimethylphenoxy)propyl)-N-((4-phenoxyphenyl)sulfonyl)-1H-indole-2-carboxamide], for which the Ki under setting [1] fell in the range of 301 to 500 nM.

For `Cc1cc(OCCCc2c(C(=O)NS(=O)(=O)CCN(C/C=C/c3ccccc3)C/C=C/c3ccccc3)[nH]c3ccccc23)cc(C)c1Cl` [Example 203, 3-(3-(4-chloro-3,5-dimethylphenoxy)propyl)-N-((2-(dicinnamylamino)ethyl)sulfonyl)-1H-indole-2-carboxamide], the Ki under setting [1] lay in the range of 301 to 500 nM.

`Cc1cc(OCCCc2c(C(=O)NS(C)(=O)=O)n(Cc3cccnc3)c3cc(Cl)ccc23)cc(C)c1Cl` [Example 271, 6-chloro-3-(3-(4-chloro-3,5-dimethylphenoxy)propyl)-N-(methylsulfonyl)-1-(pyridin-3-ylmethyl)-1H-indole-2-carboxamide]: the Ki under setting [1] lay in the range of 301 to 500 nM.

As to `Cc1cc(OCCCc2c(C(=O)NS(=O)(=O)c3ccccc3)n(Cc3cccnc3)c3cc(Cl)ccc23)cc(C)c1Cl` [Example 272, 6-chloro-3-(3-(4-chloro-3,5-dimethylphenoxy)propyl)-N-(phenylsulfonyl)-1-(pyridin-3-ylmethyl)-1H-indole-2-carboxamide], the Ki under setting [1] was 101 to 299 nM.

For `O=C(NS(=O)(=O)c1ccc2ccccc2c1)c1oc2ccccc2c1CCCOc1cccc2ccccc12` [Example 25, 3-(3-(naphthalen-1-yloxy)propyl)-N-(naphthalen-2-ylsulfonyl)benzofuran-2-carboxamide], the Ki under setting [1] lay within 1000 to 9990 nM.

With `Cc1cc(OCCCc2c(C(=O)NS(=O)(=O)c3ccc(OCc4ccccc4)cc3)[nH]c3ccccc23)cc(C)c1Cl` [Example 136, N-((4-(benzyloxy)phenyl)sulfonyl)-3-(3-(4-chloro-3,5-dimethylphenoxy)propyl)-1H-indole-2-carboxamide], under setting [1], the Ki fell in the range of 101 to 299 nM.

As to `Cc1cc(OCCCc2c(C(=O)NS(C)(=O)=O)[nH]c3cccc(C(F)(F)F)c23)cc(C)c1Cl` [Example 82, 3-(3-(4-chloro-3,5-dimethylphenoxy)propyl)-N-(methylsulfonyl)-4-(trifluoromethyl)-1H-indole-2-carboxamide], under setting [1], the Ki was in the range of 101 to 299 nM.
